By IC50 is commonly meant the midpoint of a concentration-inhibition curve. A higher IC50 goes with weaker potency.

In one experiment the test system is Rattus norvegicus. Put plainly: Compound tested for in vivo inhibitory dose against All-induced pressor response in normotensive, conscious rats. The experiment is classed as functional. Conditions: read-out: ID50 (the source's name).
The target in experiment [1] is T1, Type-1 angiotensin II receptor (Bos taurus, UniProt P25104).
T1 sequence (P25104 whole entry): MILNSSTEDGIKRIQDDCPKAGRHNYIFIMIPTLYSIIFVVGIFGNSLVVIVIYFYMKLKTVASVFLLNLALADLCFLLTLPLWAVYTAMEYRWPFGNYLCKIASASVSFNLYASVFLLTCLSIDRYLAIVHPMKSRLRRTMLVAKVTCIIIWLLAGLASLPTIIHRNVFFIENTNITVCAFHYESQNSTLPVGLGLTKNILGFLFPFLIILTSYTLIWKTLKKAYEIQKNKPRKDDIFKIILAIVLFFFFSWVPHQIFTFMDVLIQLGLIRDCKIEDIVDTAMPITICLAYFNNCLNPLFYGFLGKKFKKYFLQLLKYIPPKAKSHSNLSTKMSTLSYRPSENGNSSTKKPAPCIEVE
The experiment in a line: Inhibition of [125l]-All binding to bovine adrenal cortex. The format is tissue-based.

With `CCCCc1nc(Cl)c(C(=O)O)n1Cc1ccc(-c2ccccc2C(=O)O)cc1`, the ED50 in the experiment with Rattus norvegicus stood at 0.21 mg/kg. In the case of `CCc1nc(CO)c(C(=O)O)n1Cc1ccc(-c2ccccc2C(=O)O)cc1`, the IC50 in experiment [1] stood at 150 nM. In addition, in the experiment with Rattus norvegicus, the ED50 was 0.27 mg/kg. Consider `CCCc1nc(C(=O)O)c(C(=O)O)n1Cc1ccc(-c2ccccc2C(=O)O)cc1`, for which the IC50 in experiment [1] was found to be 320 nM. The ED50 in the experiment with Rattus norvegicus stood at 0.67 mg/kg. Taken in the same sequence, the figures for `CCCc1cc(COC)c(C(=O)O)n1Cc1ccc(-c2ccccc2C(=O)O)cc1` were 4500 nM and 4.2 mg/kg.

As to `CCCc1cc(C(=O)O)c(CO)n1Cc1ccc(-c2ccccc2C(=O)O)cc1`, the IC50 in experiment [1] was found to be 2100 nM. Further, the ED50 in the experiment with Rattus norvegicus worked out at 5.9 mg/kg.

With `CCCc1nc(C(=O)O)c(CO)n1Cc1ccc(-c2ccccc2C(=O)O)cc1`, the ED50 with Rattus norvegicus turned out to be 8.8 mg/kg.

With `CCCCc1nc(CO)c(C(=O)O)n1Cc1ccc(-c2ccccc2C(=O)O)cc1`, the IC50 in experiment [1] stood at 65 nM. Further, in the experiment on Rattus norvegicus, the ED50 came to 0.22 mg/kg. Consider `CCCCc1nc(Cl)c(C(=O)O)n1Cc1ccc(-c2ccccc2-c2nn[nH]n2)cc1` [CARBOXYLIC ACID METABOLITE], for which, in experiment [1], the 50% inhibitory concentration (IC50) turned out to be 22 nM. Also, the ED50 in the experiment on Rattus norvegicus is 0.1 mg/kg.

`CCCc1nc(CO)c(C(=O)OCC)n1Cc1ccc(-c2ccccc2C(=O)O)cc1` registered an IC50 in experiment [1] of 840 nM. The ED50 in the experiment on Rattus norvegicus was 1.5 mg/kg. The matching figures for `CCCCc1nc(Cl)c(CO)n1Cc1ccc(-c2ccccc2-c2nnn[nH]2)cc1` [LOSARTAN]: 120 nM and 0.3 mg/kg. `CCCc1nc(CO)c(C(=O)O)n1Cc1ccc(-c2ccccc2C(=O)O)cc1` had an IC50 in experiment [1] of 58 nM. Further, the ED50 in the experiment on Rattus norvegicus is 0.069 mg/kg.

`CCCCc1nc(Cl)c(CO)n1Cc1ccc(-c2ccccc2C(=O)O)cc1` gave an IC50 in experiment [1] of 490 nM. For the same compound, in the experiment with Rattus norvegicus, the ED50 was 2.3 mg/kg.

`CCCc1nc(CO)c(CO)n1Cc1ccc(-c2ccccc2C(=O)O)cc1`: the IC50 in experiment [1] came out at 2700 nM. Moreover, the ED50 in the experiment with Rattus norvegicus is 2.1 mg/kg.

The values are drawn from ChEMBL document CHEMBL1127869, “Angiotensin II receptor antagonists: imidazoles and pyrroles bearing hydroxymethyl and carboxy substituents” (Bioorg Med Chem Lett, 1994).
